Data on two compounds can be found in ChEMBL document CHEMBL1649369, “Novel 4-aryl-pyrido[1,2-c]pyrimidines with dual SSRI and 5-HT(1A) activity. part 3” (Eur J Med Chem, 2011).

As a reminder, the Ki is the dissociation constant of the complex between target and ligand, obtained from inhibition or displacement. A low value points to higher affinity.

The target of experiment [1] is Sodium-dependent serotonin transporter (Rattus norvegicus, UniProt P31652). Briefly: Displacement of [3H]citalopram from SERT in rat cerebral cortex by liquid scintillation counting. The class given is tissue-based. (In general: In a radioligand displacement assay an active substance lowers the binding of a labelled ligand.)
Experiment [2] concerns Mus musculus. Briefly: Effect on hypothermia in Swiss albino mouse assessed as change in rectal body temperature at 2.5 mg/kg, ip after 120 mins by inducible hypothermia test. Type of experiment: functional, organism-based. Further details: dose 2.5 mg/kg.
Experiment [3] relates to Mus musculus. Briefly: Antidepressant activity in Swiss albino mouse assessed as total immobility time at 5 mg/kg, ip administered 30 mins before test measured 6 mins test session after 2 mins habituation period by forced swimming test. The class given is functional, organism-based. More on the design: dose 5 mg/kg.
The test system of experiment [4] is Mus musculus. Kind of experiment: Effect on hypothermia in Swiss albino mouse assessed as change in rectal body temperature at 5 mg/kg, ip dosed 15 mins after 0.1 mg/kg, sc WAY 100635 challenge measured after 60 mins by inducible hypothermia test. The class given is functional, organism-based.
Experiment [5] concerns Mus musculus. Kind of experiment: Effect on hypothermia in Swiss albino mouse assessed as change in rectal body temperature at 5 mg/kg, ip after 60 mins by inducible hypothermia test. Further details: dose 5 mg/kg. Type of experiment: functional, organism-based.
The test system of experiment [6] is Mus musculus. Briefly: Antidepressant activity in Swiss albino mouse assessed as total immobility time at 2.5 mg/kg, ip administered 30 mins before test measured 6 mins test session after 2 mins habituation period by forced swimming test. Type of experiment: functional, organism-based. More on the design: dose 2.5 mg/kg.
Experiment [7] concerns the target T1, 5-hydroxytryptamine receptor 1A (Rattus norvegicus, UniProt P19327).
T1 sequence (P19327 whole entry): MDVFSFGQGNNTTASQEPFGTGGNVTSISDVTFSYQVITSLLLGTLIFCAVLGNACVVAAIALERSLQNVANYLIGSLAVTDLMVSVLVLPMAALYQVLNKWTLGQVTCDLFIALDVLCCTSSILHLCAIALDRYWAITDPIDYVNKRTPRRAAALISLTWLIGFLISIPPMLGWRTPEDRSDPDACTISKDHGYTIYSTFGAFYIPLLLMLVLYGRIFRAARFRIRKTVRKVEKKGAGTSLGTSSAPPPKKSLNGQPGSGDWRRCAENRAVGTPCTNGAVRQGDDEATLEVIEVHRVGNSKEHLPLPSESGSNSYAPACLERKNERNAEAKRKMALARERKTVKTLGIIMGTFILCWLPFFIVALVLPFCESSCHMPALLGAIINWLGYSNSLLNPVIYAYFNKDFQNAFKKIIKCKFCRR
Kind of experiment: Displacement of [3H]8-OH-DPAT from 5-HT1A receptor in rat hippocampus. The class given is tissue-based.

The test system of experiment [8] is Mus musculus. Kind of experiment: Effect on hypothermia in Swiss albino mouse assessed as change in rectal body temperature at 5 mg/kg, ip dosed 15 mins after 0.1 mg/kg, sc WAY 100635 challenge measured after 30 mins by inducible hypothermia test. Type of experiment: functional, organism-based.
Experiment [9] deals with Mus musculus. Kind of experiment: Effect on hypothermia in Swiss albino mouse assessed as change in rectal body temperature at 5 mg/kg, ip after 30 mins by inducible hypothermia test. The class given is functional, organism-based. More on the design: dose 5 mg/kg.
Experiment [10] deals with Mus musculus. Kind of experiment: Effect on hypothermia in Swiss albino mouse assessed as change in rectal body temperature at 5 mg/kg, ip after 90 mins by inducible hypothermia test. The class given is functional, organism-based. More on the design: dose 5 mg/kg.
The subject of experiment [11] is Mus musculus. Kind of experiment: Effect on hypothermia in Swiss albino mouse assessed as change in rectal body temperature at 2.5 mg/kg, ip after 60 mins by inducible hypothermia test. Type of experiment: functional, organism-based. Further details: dose 2.5 mg/kg.
The test system of experiment [12] is Mus musculus. Kind of experiment: Effect on hypothermia in Swiss albino mouse assessed as change in rectal body temperature at 5 mg/kg, ip after 120 mins by inducible hypothermia test. The class given is functional, organism-based. More on the design: dose 5 mg/kg.
Experiment [13] has as its system Mus musculus. Briefly: Effect on hypothermia in Swiss albino mouse assessed as change in rectal body temperature at 2.5 mg/kg, ip after 90 mins by inducible hypothermia test. The class given is functional, organism-based. More on the design: dose 2.5 mg/kg.
Experiment [14] concerns Mus musculus. Kind of experiment: Effect on hypothermia in Swiss albino mouse assessed as change in rectal body temperature at 2.5 mg/kg, ip after 30 mins by inducible hypothermia test. Type of experiment: functional, organism-based. Further details: dose 2.5 mg/kg.
Experiment [15] concerns Mus musculus. Kind of experiment: Reduction of 8-OH-DPAT-induced hypothermia in Swiss albino mouse at 20 mg/kg, ip administered 45 mins prior 8-OH-DPAT challenge measured after 45 mins by inducible hypothermia test. Type of experiment: functional, organism-based. Further details: dose 20 mg/kg.
Experiment [16] concerns Mus musculus. Briefly: Reduction of 8-OH-DPAT-induced hypothermia in Swiss albino mouse at 20 mg/kg, ip administered 45 mins prior 8-OH-DPAT challenge measured after 15 mins by inducible hypothermia test. Type of experiment: functional, organism-based. Further details: dose 20 mg/kg.
Experiment [17] has as its system Mus musculus. Kind of experiment: Reduction of 8-OH-DPAT-induced hypothermia in Swiss albino mouse at 20 mg/kg, ip administered 45 mins prior 8-OH-DPAT challenge measured after 30 mins by inducible hypothermia test. The class given is functional, organism-based. More on the design: dose 20 mg/kg.
The test system of experiment [18] is Mus musculus. Kind of experiment: Reduction of 8-OH-DPAT-induced hypothermia in Swiss albino mouse at 20 mg/kg, ip administered 45 mins prior 8-OH-DPAT challenge measured after 60 mins by inducible hypothermia test. The class given is functional, organism-based. Further details: dose 20 mg/kg.

Each structure is given as a SMILES string. The source made the active and inactive calls. The rule behind the calls is not given here.

Chain of Sodium-dependent serotonin transporter (P31652 whole entry): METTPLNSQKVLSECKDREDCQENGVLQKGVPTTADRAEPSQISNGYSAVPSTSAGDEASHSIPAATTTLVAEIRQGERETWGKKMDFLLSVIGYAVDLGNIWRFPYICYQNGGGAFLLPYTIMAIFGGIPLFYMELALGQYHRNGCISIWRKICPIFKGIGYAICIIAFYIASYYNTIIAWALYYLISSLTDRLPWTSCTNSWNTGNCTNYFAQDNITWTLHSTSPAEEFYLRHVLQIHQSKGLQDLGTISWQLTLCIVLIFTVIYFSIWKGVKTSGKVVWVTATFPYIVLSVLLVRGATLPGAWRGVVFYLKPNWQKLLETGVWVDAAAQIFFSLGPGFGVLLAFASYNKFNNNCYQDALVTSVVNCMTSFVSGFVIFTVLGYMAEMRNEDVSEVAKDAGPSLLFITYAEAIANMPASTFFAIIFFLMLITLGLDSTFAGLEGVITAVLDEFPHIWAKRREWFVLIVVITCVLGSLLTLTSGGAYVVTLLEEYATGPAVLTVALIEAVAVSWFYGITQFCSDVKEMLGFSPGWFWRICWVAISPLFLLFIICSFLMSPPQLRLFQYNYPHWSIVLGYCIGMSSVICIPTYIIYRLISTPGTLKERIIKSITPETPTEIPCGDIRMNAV

Take `O=c1c(-c2ccc(Cl)cc2)c2n(c(=O)n1CCCCN1CCC(c3c[nH]c4ccccc34)CC1)CCCC2`: the values for the Ki in experiment [1] and in experiment [7] were 44.1 nM and 48.6 nM, respectively. For the same compound, the deltaT with Mus musculus [2] was -0.1 °C; in the experiment on Mus musculus [4], -0.1 °C; with Mus musculus [5], -0.5 °C; with Mus musculus [8] it was -0.2 °C; in the experiment with Mus musculus [9], -1 °C; in the experiment on Mus musculus [10], -0.4 °C. In addition, the deltaT with Mus musculus [11] is -0.4 °C; in the experiment on Mus musculus [12], -0.3 °C; with Mus musculus [13], -0.1 °C; with Mus musculus [14], -0.3 °C. The outcome in the experiment on Mus musculus [3] and in the experiment on Mus musculus [6] was inactive.

Take `O=c1c(-c2ccc(F)cc2)c2n(c(=O)n1CCCCN1CCC(c3c[nH]c4ccccc34)CC1)CCCC2`: the Ki in experiment [1] turned out to be 47 nM; in experiment [7] it was 62.3 nM. Besides, the deltaT with Mus musculus [15] is -1.1 °C; in the experiment on Mus musculus [16], -0.7 °C; in the experiment with Mus musculus [17], -1.6 °C; with Mus musculus [18], -0.6 °C.
